Data reported in PubChem BioAssay (NCI).
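GI50: concentration for 50% inhibition of growth. TGI is the concentration that stops growth completely.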

Columns and labels:
Test in all cases: NCI tumour cell line growth inhibition, 384-well format; in the data active = GI50 below about 0.43 µM; inactive = the rest
[1] = test system: NCI-H23 lung
[2] = test system: OVCAR-8 ovarian
[3] = test system: SK-MEL-5 melanoma
[4] = test system: ACHN renal
[5] = test system: SNB-75 CNS
[6] = test system: T-47D breast
[7] = test system: HT29 colon
[8] = test system: HOP-92 NSCLC
[9] = test system: SF-295 CNS
[10] = test system: SW-620 colon
[11] = test system: SF-268 CNS
[12] = test system: HCC-2998 colon
[13] = test system: LOX IMVI melanoma
[14] = test system: NCI-H226 lung
[15] = test system: MALME-3M melanoma
[16] = test system: HS 578T breast
[17] = test system: OVCAR-3 ovarian
[18] = test system: UACC-257 melanoma
[19] = test system: CAKI-1 renal
[20] = test system: EKVX NSCLC
[21] = test system: NCI-H322M lung
[22] = test system: NCI/ADR-RES ovarian
[23] = test system: OVCAR-4 ovarian
[24] = test system: HOP-62 NSCLC
[25] = test system: UO-31 renal
[26] = test system: NCI-H460 NSCLC
[27] = test system: SK-MEL-28 melanoma
[28] = test system: KM12 colon
[29] = test system: RXF 393 renal
[30] = test system: MDA-MB-231 breast
[31] = test system: A549 NSCLC
[32] = test system: NCI-H522 lung
[33] = test system: COLO 205 colon
[34] = test system: MCF7 breast
[35] = test system: RPMI-8226 leukemia
[36] = test system: BT-549 breast
[37] = test system: U251 glioblastoma
[38] = test system: A498 renal
[39] = test system: PC-3 prostate
[40] = test system: HCT-15 colon
[41] = test system: M14 melanoma
[42] = test system: K-562 leukemia
[43] = test system: SF-539 CNS
[44] = test system: HL-60(TB) leukemia
[45] = test system: TK-10 renal
[46] = test system: DU-145 prostate
[47] = test system: HCT-116 colon
[48] = test system: CCRF-CEM leukemia
[49] = test system: MDA-MB-435 melanoma
[50] = test system: SR leukemia
[51] = test system: 786-0 renal
[52] = test system: UACC-62 melanoma
[53] = test system: SK-OV-3 ovarian
[54] = test system: IGROV1 ovarian
[55] = test system: SNB-19 CNS
[56] = test system: MDA-MB-468 breast
[57] = test system: OVCAR-5 ovarian
[58] = test system: MOLT-4 leukemia
[59] = test system: SN12C renal

CCCCCCCCCCCCCCCC(=O)Nc1ccn([C@@H]2O[C@H](CO)[C@@H](O)[C@@H]2C#N)c(=O)n1
23.4 µM: TGI [32]
39.1 µM: TGI [4] | TGI [53]
52.5 µM: TGI [5]
86 µM: TGI [54]
21 µM: TGI [3]
21.7 µM: TGI [46]
20.4 µM: TGI [16]
0.12 µM: TGI [48]
24.2 µM: TGI [36]
35.3 µM: TGI [8]
18.5 µM: TGI [24]
74.6 µM: TGI [18]
92.5 µM: TGI [39]
15.8 µM: TGI [38]
19.9 µM: TGI [11]
1.4 µM: TGI [44]
28 µM: TGI [15]
active: GI50 [1] 0.244 µM | GI50 [2] 0.292 µM | GI50 [24] 0.0542 µM | GI50 [26] 0.143 µM | GI50 [33] 0.325 µM | GI50 [37] 0.314 µM | GI50 [44] 0.368 µM | GI50 [50] 0.139 µM | GI50 [51] 0.0598 µM
20.6 µM: TGI [35]
18.4 µM: TGI [2]
17.7 µM: TGI [13] | TGI [42]
> 100 µM: TGI [6] | TGI [7] | TGI [9] | TGI [10] | TGI [20] | TGI [22] | TGI [23] | TGI [29] | TGI [30] | TGI [33] | TGI [45] | TGI [49]
24.3 µM: TGI [34]
22.4 µM: TGI [41]
30.1 µM: TGI [27]
0.339 µM: TGI [50]
15.5 µM: TGI [1]
43.6 µM: TGI [19]
10.1 µM: TGI [26]
31 µM: TGI [21]
54.9 µM: TGI [14]
35.2 µM: TGI [28]
20 µM: TGI [31]
18.8 µM: TGI [47]
23.5 µM: TGI [37] | TGI [52]
45.7 µM: TGI [25]
10.6 µM: TGI [12]
38.3 µM: TGI [43]
29.8 µM: TGI [51]
37.9 µM: TGI [17]
inactive: GI50 [3] 7.71 µM | GI50 [4] 0.988 µM | GI50 [5] 4.66 µM | GI50 [6] 35.1 µM | GI50 [7] 12.5 µM | GI50 [8] 4.71 µM | GI50 [9] 0.716 µM | GI50 [10] 4.81 µM | GI50 [11] 0.43 µM | GI50 [12] 0.464 µM | GI50 [13] 3.42 µM | GI50 [14] 13.3 µM | GI50 [15] 10.5 µM | GI50 [16] 1.58 µM | GI50 [17] 10.3 µM | GI50 [18] 20.1 µM | GI50 [19] 2.44 µM | GI50 [20] 28.4 µM | GI50 [21] 14.6 µM | GI50 [22] 11.1 µM | GI50 [23] 28.1 µM | GI50 [25] 11.7 µM | GI50 [27] 6.96 µM | GI50 [28] 6.5 µM | GI50 [29] 16.6 µM | GI50 [30] 11.1 µM | GI50 [31] 1.32 µM | GI50 [32] 6.11 µM | GI50 [34] 1.33 µM | GI50 [35] 4.4 µM | GI50 [36] 5.56 µM | GI50 [38] 0.74 µM | GI50 [39] 13.3 µM | GI50 [40] 0.946 µM | GI50 [41] 3 µM | GI50 [42] 2.52 µM | GI50 [43] 4.82 µM | GI50 [45] 34.8 µM | GI50 [46] 0.751 µM | GI50 [47] 0.454 µM | GI50 [49] 28.1 µM | GI50 [52] 0.655 µM | GI50 [53] 1.15 µM | GI50 [54] 12.7 µM
66.9 µM: TGI [40]

CC(C)(C(=O)NCC(F)(F)C(F)(F)F)C(=O)N[C@@H]1C(=O)Nc2ccccc2-c2ccccc21
33.3 µM: TGI [56]
76.3 µM: TGI [23]
25.6 µM: TGI [58]
> 100 µM: TGI [1] | TGI [55] | TGI [2] | TGI [3] | TGI [4] | TGI [5] | TGI [7] | TGI [8] | TGI [9] | TGI [10] | TGI [11] | TGI [12] | TGI [13] | TGI [14] | TGI [15] | TGI [16] | TGI [17] | TGI [19] | TGI [20] | TGI [21] | TGI [22] | TGI [24] | TGI [25] | TGI [26] | TGI [57] | TGI [27] | TGI [28] | TGI [29] | TGI [30] | TGI [31] | TGI [32] | TGI [33] | TGI [59] | TGI [34] | TGI [36] | TGI [37] | TGI [38] | TGI [39] | TGI [40] | TGI [41] | TGI [42] | TGI [43] | TGI [45] | TGI [46] | TGI [49] | TGI [50] | TGI [51] | TGI [52] | TGI [53] | TGI [54]
76.4 µM: TGI [35]
48.1 µM: TGI [6]
inactive: GI50 [1] 41.1 µM | GI50 [55] 63.5 µM | GI50 [2] 69.9 µM | GI50 [3] 39.1 µM | GI50 [4] 54.8 µM | GI50 [5] 63.6 µM | GI50 [6] 6.31 µM | GI50 [7] 37.2 µM | GI50 [8] 32.5 µM | GI50 [9] 52.5 µM | GI50 [10] > 100 µM | GI50 [11] > 100 µM | GI50 [12] 24 µM | GI50 [13] > 100 µM | GI50 [14] 45.8 µM | GI50 [15] 22.2 µM | GI50 [16] 32 µM | GI50 [17] 36.3 µM | GI50 [19] > 100 µM | GI50 [20] 29 µM | GI50 [21] > 100 µM | GI50 [22] 30 µM | GI50 [23] 17.5 µM | GI50 [24] 74.6 µM | GI50 [25] 74.6 µM | GI50 [26] 46 µM | GI50 [57] > 100 µM | GI50 [27] 46.9 µM | GI50 [28] 53.2 µM | GI50 [29] 27.3 µM | GI50 [30] 51.2 µM | GI50 [31] 33.6 µM | GI50 [32] 42.4 µM | GI50 [58] 11.5 µM | GI50 [33] 44.6 µM | GI50 [59] > 100 µM | GI50 [34] 22 µM | GI50 [35] 18.8 µM | GI50 [36] 39.2 µM | GI50 [37] > 100 µM | GI50 [38] 47 µM | GI50 [39] 41.2 µM | GI50 [40] 43.3 µM | GI50 [41] 89.2 µM | GI50 [42] 44.8 µM | GI50 [43] > 100 µM | GI50 [45] 88.7 µM | GI50 [46] 55.9 µM | GI50 [48] 18.6 µM | GI50 [49] 92.7 µM | GI50 [50] 23.3 µM | GI50 [51] 58.5 µM | GI50 [52] 20.4 µM | GI50 [53] 90.8 µM | GI50 [54] 92.1 µM
69.8 µM: TGI [48]
